Entries after “also recorded” stand apart in the source; their conditions may differ. Read-outs that look alike come from different tables or passages of the source. Ends that are not written are not given here.
How the values were obtained:
Aβ oligomers [1] = biological target: T1, Aβ oligomers (Homo sapiens, UniProt P05067); assay: Isothermal titration calorimetry (ITC) with Aβ oligomers; type: binding
T1 construct: a depsipeptide derivative of Aβ(1–42) was utilized; made in house; host or cells: chemical peptide synthesis (no expression host)
Protocol: (§1) Binding of 7 to the Aβ oligomers was monitored by means of isothermal titration calorimetry (ITC). […] The titrations were run at 288 K in order to improve the signal to noise ratio, and just above the precipitation limit as the ITC method is sensitive to the thermal noise caused by the stirring of large particles. […] These values strongly supported tight binding between the Aβ oligomer species and 7.
Isothermal titrations were performed with a Microcal VP-ITC microcalorimeter. The binding experiments were performed in PBS pH 7.4. The buffer solution was degassed. The concentrations of the ligands and Aβ were corrected for the material content. In individual titrations, 10 μL of ligand was injected from the computer-controlled 300-μL microsyringe at intervals of 300 s into the Aβ oligomer solution dissolved in the same buffer as the ligand. The microsyringe stirring was set to 295 rpm. All measurements were made at 288 K. The Aβ concentrations in the cell were either 72 μM or 36 μM, and the concentrations of 7 were 175 μM and 222 μM respectively. The total ligand concentration was set in the syringe so that the titration stopped when the precipitation became excessive. Control experiments were performed by injecting the ligand into a cell containing buffer with no target, and the heats of dilution were subtracted from those measured in the presence of Aβ. Titrations were also performed with buffer in the syringe and Aβ oligomer sample in the cell to check for the heat response of Aβ dilution itself. The dilution heat of the Aβ oligomer samples was constant and negligible. Since the target is inherently inhomogeneous, and an a priori model of the binding events is not available,. the experimental data were fitted to the two independent site binding model by using a nonlinear least-squares procedure, with ΔHb, ΔHb', Ka, Ka' (association constants), N and N' (number of binding sites for monomer), as adjustable parameters. The exothermic peaks appearing after the fully precipitated phase was reached, were omitted from the regression.

[2] = system: LTP in mouse hippocampal slices impaired by Aβ(1–42) oligomers; assay: Ex vivo hippocampal slice LTP electrophysiology; type: cell-based
Source text: We investigated whether 7 could protect against the synaptic plasticity damage caused by Aβ(1–42) oligomers by using a hippocampus slice LTP model. LTP, a correlate of learning and memory has been repeatedly shown to be impaired by Aβ(1–42) oligomers. As negative control, substance 11 was applied. The experimenters were blind to the compounds tested.
These observations indicate the significant protective effect of 7 (Figure 12D). To test the effects of valency, LTP experiments were repeated with 8 under the same conditions.
Via standard procedures, 350-µm-thick transverse hippocampal slices were prepared from the brain of 7-months-old mice (CD1, Animal Breeding Facility, University of Szeged) with a McIlwain tissue chopper (Campden Instruments, Loughborough, UK). Slices were incubated in standard artificial cerebrospinal fluid (ACSF) at ambient temperature for 60 min, during constant gassing with 95% O2–5% CO2. The ACSF contained (mM): NaCl, 130; KCl, 3.5; CaCl2, 2; MgCl2, 2; NaH2PO4, 0.96; NaHCO3, 24; and D-glucose, 10 (pH 7.4). Individual slices were transferred to a 3D-MEA chip with 60 tip-shaped and 60-μm-high electrodes spaced at 100 μm (Ayanda Biosystems, S.A., Lausanne, Switzerland). The slice was continuously perfused with oxygenated ACSF (1.5 ml min^−1 at 34 °C) containing 720 nM Aβ(1–42) oligomers and/or 950 nM ligand throughout the recording session. Data were recorded with a standard, commercially available MEA setup (Multi Channel Systems MCS GmbH, Reutlingen, Germany). The Schaffer-collateral was stimulated by injecting a biphasic current waveform (−100/+100 μs) through one selected electrode at 0.033 Hz. Care was taken to choose the stimulating electrode in the same region from one slice to the other. The peak-to-peak amplitudes of fEPSPs at the stratum pyramidale and stratum radiatum of CA1 were analyzed. After a 30-min incubation period, the threshold and the maximum of stimulation intensity for evoke responses was determined. To evoke responses, 30% of the maximal stimulation intensity was used. LTP was induced by applying a theta-burst stimulation (TBS) pattern at the maximal stimulation intensity. The TBS comprised four trains administered at 20-s intervals with 10 bursts given at 5 Hz per train and 4 pulses at 100 Hz per burst. Statistical analysis was carried out by using two-tailed Student's t-test. For representative raw data see Figure S12.

Aβ oligomers [3] = biological target: T1, Aβ oligomers; assay: Ligand-induced precipitation during ITC titration, followed by DLS; conditions: 72 μM Aβ oligomer
Protocol: as §1
For DLS measurements, 500 µL Aβ(1–42) solution (c = 72 µM) was prepared in PBS, and placed in a low–volume sizing cell. Size distribution was measured at 25°C on a Malvern Zetasizer Nano ZS Instrument (Malvern Instruments Ltd. Worcestershire, UK) equipped with a He-Ne laser (633 nm) by means of Non-Invasive Back Scatter (NIBS®) technology, which involves detection of the scattered light at an angle of 173°. A titration routine was formulated consisting of 12 independent measurements with a 2-min delay after each. The calculated amount of 7 solution was added to the Aβ after every second measurement. During the titration, the molar quantity of 7 varied between 0–35 µM. For a single measurement, the correlation function and distribution of the apparent hydrodynamic diameter (dh) over the scattered intensity of the particles were determined on the basis of 14 scans. […]

[4] = 72 μM Aβ oligomer in cell, 288 K, PBS pH 7.4, read-out: KD (ITC; first binding step for 7, single stage for the others)
[5] = read-out: KD (ITC), given as bound, 72 μM Aβ oligomer, 288 K
[6] = read-out: KD (ITC; first binding step for 7, single stage for the others), 72 μM Aβ oligomer in cell, 288 K, PBS pH 7.4

Question: What does the source list for “11: 6 coupled to the G0-PAMAM template; negative control with Gly7 tentacles (GGGGGGGC-NH2; not fully specified (residue 8); also: coupled to tetravalent G0-PAMAM template) [Compound 11]”?
Answer: Tight binding to the Aβ oligomer species in ITC (in words) (Aβ oligomers [1]; 72 μM Aβ oligomer): the curve fitting did not converge; also recorded: did not reveal any tight binding; LTP (potentiation) with Aβ(1–42) oligomers and ligand together ([2]; 720 nM Aβ(1–42) oligomers + 950 nM ligand, 180 min after LTP induction, mean ±SEM): 130±3%; LTP (potentiation) with ligand alone ([2]; 950 nM ligand, no Aβ oligomers, mean ±SEM): 200±14%

Question: With N=C(N)NCCC[C@@H](CC(=O)N[C@H]1CCCC[C@@H]1C(=O)N[C@H]1CCCC[C@@H]1C(=O)N[C@@H](CC(=O)O)CC(=O)N[C@H]1CCCC[C@@H]1C(N)=O)NC(=O)[C@H]1CCCC[C@@H]1N [Compound 1] as the molecule, how does the Kd (Aβ oligomers [1]; [4]) read?
Answer: The Kd was 2380 ± 214 nM.

Question: And the Kd (Aβ oligomers [1]; 72 μM Aβ oligomer, 288 K, read-out: KD (ITC), given as bound)?
Answer: The Kd was greater than 2000 nM.

Question: How did the Kd (Aβ oligomers [1]; [4]) turn out when N=C(N)NCCC[C@@H](CC(=O)N[C@H]1CCCC[C@@H]1C(=O)N[C@H]1CCCC[C@@H]1C(=O)N[C@@H](CC(=O)O)CC(=O)N[C@H]1CCCC[C@@H]1C(=O)NCC(=O)NCC(=O)N[C@@H](CSC1CC(=O)N(CCCCN2C(=O)CC(SC[C@H](NC(=O)CNC(=O)CNC(=O)[C@H]3CCCC[C@@H]3NC(=O)C[C@H](CC(=O)O)NC(=O)[C@H]3CCCC[C@@H]3NC(=O)[C@H]3CCCC[C@@H]3NC(=O)C[C@H](CCCNC(=N)N)NC(=O)[C@H]3CCCC[C@@H]3N)C(N)=O)C2=O)C1=O)C(N)=O)NC(=O)[C@H]1CCCC[C@@H]1N (stereo partly drawn) [Compound 8] was run?
Answer: Its Kd is 721 ± 120 nM.

Question: And the “ΔHb (ITC; first binding step for 7, single stage for 8)” value (Aβ oligomers [1]; 72 μM Aβ oligomer, 288 K)?
Answer: Its value is 1.1 ± 0.12 kcal/mol.

Question: What about the “Rescue of LTP from toxic Aβ oligomers (in words)” value ([2]; 720 nM Aβ(1–42) oligomers + 950 nM ligand) of the same molecule?
Answer: Its value is “No rescue from the toxic Aβ oligomers was observed”.

Question: What about the “Concentration-dependent precipitation of Aβ oligomers during titration (ITC/DLS)” value (Aβ oligomers [3]) of the same molecule?
Answer: Its value is “Neither 8 nor 1 led to concentration-dependent precipitation”.

Question: What does the source list for NC(=O)[C@H](CSC1CC(=O)N(CCC(=O)NCCNC(=O)CCN(CCC(=O)NCCNC(=O)CCN2C(=O)CC(SC[C@H](NC(=O)CNC(=O)CNC(=O)[C@H]3CCCC[C@@H]3NC(=O)C[C@H](CO)NC(=O)[C@H]3CCCC[C@@H]3NC(=O)[C@H]3CCCC[C@@H]3NC(=O)C[C@H](CO)NC(=O)[C@H]3CCCC[C@@H]3N)C(N)=O)C2=O)CCN(CCC(=O)NCCNC(=O)CCN2C(=O)CC(SC[C@H](NC(=O)CNC(=O)CNC(=O)[C@H]3CCCC[C@@H]3NC(=O)C[C@H](CO)NC(=O)[C@H]3CCCC[C@@H]3NC(=O)[C@H]3CCCC[C@@H]3NC(=O)C[C@H](CO)NC(=O)[C@H]3CCCC[C@@H]3N)C(N)=O)C2=O)CCC(=O)NCCNC(=O)CCN2C(=O)CC(SC[C@H](NC(=O)CNC(=O)CNC(=O)[C@H]3CCCC[C@@H]3NC(=O)C[C@H](CO)NC(=O)[C@H]3CCCC[C@@H]3NC(=O)[C@H]3CCCC[C@@H]3NC(=O)C[C@H](CO)NC(=O)[C@H]3CCCC[C@@H]3N)C(N)=O)C2=O)C1=O)NC(=O)CNC(=O)CNC(=O)[C@H]1CCCC[C@@H]1NC(=O)C[C@H](CO)NC(=O)[C@H]1CCCC[C@@H]1NC(=O)[C@H]1CCCC[C@@H]1NC(=O)C[C@H](CO)NC(=O)[C@H]1CCCC[C@@H]1N (stereo partly drawn) [Compound 9]?
Answer: Tight binding to the Aβ oligomer species in ITC (in words) (Aβ oligomers [1]; 72 μM Aβ oligomer): did not reveal any tight binding; N (ITC stoichiometry, number of binding sites for monomer; first or single stage) (Aβ oligomers [1]; 72 μM Aβ oligomer, 288 K): 0.03; Kd (Aβ oligomers [1]; [5]): > 2000 nM; Kd (Aβ oligomers [1]; [6]): 2240 ± 198 nM

Question: Which “Tight binding to the Aβ oligomer species in ITC (in words)” value (Aβ oligomers [1]; 72 μM Aβ oligomer) does the source give for N=C(N)NCCC[C@@H](CC(=O)N[C@H]1CCCC[C@@H]1C(=O)N[C@@H](CC(=O)O)CC(=O)N[C@H]1CCCC[C@@H]1C(=O)N[C@H]1CCCC[C@@H]1C(=O)NCC(=O)NCC(=O)N[C@@H](CSC1CC(=O)N(CCC(=O)NCCNC(=O)CCN(CCC(=O)NCCNC(=O)CCN2C(=O)CC(SC[C@H](NC(=O)CNC(=O)CNC(=O)[C@H]3CCCC[C@@H]3NC(=O)[C@H]3CCCC[C@@H]3NC(=O)C[C@H](CC(=O)O)NC(=O)[C@H]3CCCC[C@@H]3NC(=O)C[C@H](CCCNC(=N)N)NC(=O)[C@H]3CCCC[C@@H]3N)C(N)=O)C2=O)CCN(CCC(=O)NCCNC(=O)CCN2C(=O)CC(SC[C@H](NC(=O)CNC(=O)CNC(=O)[C@H]3CCCC[C@@H]3NC(=O)[C@H]3CCCC[C@@H]3NC(=O)C[C@H](CC(=O)O)NC(=O)[C@H]3CCCC[C@@H]3NC(=O)C[C@H](CCCNC(=N)N)NC(=O)[C@H]3CCCC[C@@H]3N)C(N)=O)C2=O)CCC(=O)NCCNC(=O)CCN2C(=O)CC(SC[C@H](NC(=O)CNC(=O)CNC(=O)[C@H]3CCCC[C@@H]3NC(=O)[C@H]3CCCC[C@@H]3NC(=O)C[C@H](CC(=O)O)NC(=O)[C@H]3CCCC[C@@H]3NC(=O)C[C@H](CCCNC(=N)N)NC(=O)[C@H]3CCCC[C@@H]3N)C(N)=O)C2=O)C1=O)C(N)=O)NC(=O)[C@H]1CCCC[C@@H]1N (stereo partly drawn) [Compound 10] here?
Answer: The value was “did not reveal any tight binding”.

Question: And the “N (ITC stoichiometry, number of binding sites for monomer; first or single stage)” value (Aβ oligomers [1]; 72 μM Aβ oligomer, 288 K)?
Answer: The value was 0.10.

Question: What about the Kd (Aβ oligomers [1]; [5]) of the same molecule?
Answer: The Kd was greater than 2000 nM.

Question: What about the Kd (Aβ oligomers [1]; [6]) of the same molecule?
Answer: Its Kd is 2750 ± 301 nM.

Question: Which “LTP (potentiation) with Aβ(1–42) oligomer alone” value ([2]; 720 nM Aβ(1–42) oligomer, untreated slices 175±5%) does the source give for “Aβ(1–42) oligomer: synaptotoxic Aβ(1–42) oligomers prepared from Ser26 depsipeptide iso-Aβ(1–42) at pH 7.4 [reference compound]” here?
Answer: The value was 128±5%.

— PMC3408453, “A Foldamer-Dendrimer Conjugate Neutralizes Synaptotoxic β-Amyloid Oligomers” (PLoS ONE, 2012)
